The record followed here is publication PMC6445123 (Scientific Reports, 2019).

This assay deals with T1, Casp6 (Homo sapiens, UniProt P55212, INS179NQTEKLDTNITEVD).
T1 construct: generating mainly large subunit with a linker (LS-L), small subunit (SS), and a minor amount of large subunit (LS); His (C); made in house; host or cells: E. coli BL21(DE3)pLysS
T1 sequence (P55212 24-193 limits assumed): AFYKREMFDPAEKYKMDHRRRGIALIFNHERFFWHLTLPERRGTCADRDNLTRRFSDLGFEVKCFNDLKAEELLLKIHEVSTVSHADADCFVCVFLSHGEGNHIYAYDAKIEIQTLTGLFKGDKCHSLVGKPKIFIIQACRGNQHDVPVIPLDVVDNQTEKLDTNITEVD
T1 sequence (P55212 194-293 limits assumed): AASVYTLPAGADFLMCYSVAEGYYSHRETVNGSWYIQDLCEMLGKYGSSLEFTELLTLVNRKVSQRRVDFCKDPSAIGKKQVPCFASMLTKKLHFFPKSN
Kind of assay: Reversibility of Casp6 inhibition (pre-incubation at 10-fold IC50, rapid 100-fold dilution). The class given is biochemical. As to conditions: recovery of activity after 60 min pre-incubation and 100-fold dilution. On the procedure: Supplementary Figure S5. Mechanism of Casp6 inhibition with C13 and S10G. (a) Inhibition of Casp6 with C13 (left panel) and S10G (right panel) is reversible. The recovery of Casp6 activity after 60 min pre-incubation with C13 and S10G at a concentration of inhibitor equal to 10-fold the IC50 value followed by a rapid 100-fold […]
(1 picture or pasted object on this page, not shown here) […]
dilution into Casp6 activity assay solution. The control samples DMSO and Q-VD-OPh were pre-incubated and diluted in the absence of inhibitor, and in the presence of an irreversible inhibitor Q-VD-OPh, respectively. Data points represent mean ± standard error of the mean (SEM) from three independent experiments. (b) Coomassie stain of SDS-PAGE of purified recombinant WT -, L200A-, and K284A-Casp6 (left panel) expressed from a full -length Casp6 encoding construct (Fig. 1c ), and copurified LS and SS of WT -, L200A-, and K284A-LS-SS-Casp6 (right panel). FL (full-length Casp6), ΔCasp6 (Casp6 without a prodomain), LS-L (large subunit with linker), LS (large subunit), and SS (small subunit) depict different bands of Casp6. (c) Michaelis-Menten kinetic plots (top panel) and calculated KM and Vmax values (bottom panel) for Casp6-WT-LS-SS (left panel), Casp6-L200A-LS-SS (middle panel), and Casp6-K284A-LS-SS (right panel) enzymatic activity in presence of 1% DMSO (0 µM C13) or increasing doses of C13. […]

Regarding `COC(=O)c1cc(CNC(=O)C2Cc3ccccc3O2)cc(NC(=O)c2ccco2)c1` (stereo not shown) [Compound C13], the “reversibility of Casp6 inhibition” value was “reversible”.
